Laboratory results: patent US9200301B2, “Marine streptomyces, pyranosesquiterpene compound, as well as preparation method and applications thereof” (SOUTH CHINA SEA INSTITUTE OF OCEANOLOGY, CHINESE ACADEMY OF …, priority 2011, dated 2015)
Values after ≈ are worked out from the molar mass of the structure shown. “Also recorded” adds a separate entry of the source. Like-named read-outs stand apart in the source and are kept apart here.

Tests used:
Artemia larvae = assay: Artemia larva lethal test; assay type: in vivo; settings: for LC50: Artemia larvae, 24 h at room temperature, from corrected mortality; for LC50 value: against Artemia larvae; for lethal Artemia activity (in words): in vivo
Procedure: (§1) Hatching of Artemia larvae: placing 100 mg of Artemia eggs in a 500 mL beaker, adding 400 mL of artificial sea water, inflating air slowly by using a small inflator pump, hatching at room temperature for 24 h, removing egg shells and the unhatched eggs, and continuously culturing the Artemia larvae for 24 h for later use.
(§2) The biological lethal method of the Artemia larvae is as follows: taking a 96-well cell culture plate according to a Solis improvement method, and adding 2004, of artificial sea water solution containing 10-15 Artemia in each well to prepare a test culture plate. […] A blank control group and sample groups of each concentration are respectively provided with three parallel holes, 54, of the sample solvent (DMSO) is added for the blank control group, 54, of the sample solutions of different concentrations are respectively added into the sample groups, and the final concentrations are 500 μg/mL, 50 μg/mL and 5 μg/mL respectively. The culture is performed at room temperature for 24 h, and then the number of dead individuals of the Artemia larvae is detected and counted under a binocular dissecting microscope. The biological lethal activity of the Artemia larvae is represented by corrected mortality and is calculated according to the following formula: Corrected mortality=(survival rate of control group−survival rate of treated group)/survival rate of control group×100%
(§3) The three concentrations and the corresponding corrected mortalities are input into a computer for respectively calculating LC50 and 95% confidence interval thereof.

Escherichia coli = assay: Anti-Escherichia coli activity test (paper sheet / dilution multiple method); assay type: cell-based
Procedure: The samples are preliminarily tested and compared with the positive control, namely the rifampicin under the situation that each sample is 100 μg/tablet and the rifampicin taken as a standard product is 1 μg/tablet.

Vibrio anguillarum [1] = settings: cited from earlier work; for MIC: against Vibrio anguillarum, values of compounds 2, 3 and 4 referred to Fdhila F et al., Journal of Natural Products, 2003, 66 (10): 1299-1301; for activity against Vibrio anguillarum (in words): compounds 2-4, based on Fdhila F et al.
[2] = Artemia larva lethal test; assay type: in vivo; settings: Artemia (brine shrimp) larvae, in vivo; against Artemia larvae
Procedure: as §1, §2, §3

Vibrio anguillarum [3] = assay: Anti-Vibrio anguillarum activity test (paper sheet / dilution multiple method); assay type: cell-based
Procedure: The samples are preliminarily tested under the situation that each sample is 100 μg/tablet, and the samples are found to have better activities. Then a dilution multiple method is adopted for testing the MIC values (the diameters of the paper sheets are 6 mm, 6-10 mm means weak activity, 10-15 mm means medium activity and 15 mm or more means strong activity).

SMILES | LC50 (Artemia larvae) [µg/mL] | LC50 value (Artemia larvae) [µg/mL] | lethal Artemia activity (in words) (Artemia larvae) | inhibitory activity against Escherichia coli (in words) (Escherichia coli) | MIC (Vibrio anguillarum [1]) [µg/mL] | activity against Vibrio anguillarum (in words) (Vibrio anguillarum [1]) | LC50 at 24 h [2] [µg/mL] | MIC (Escherichia coli; against Escherichia coli, LB medium, 37° C., observed after 24 h, read-out: MIC) [µg/mL] | MIC (Escherichia coli; anti-Escherichia coli activity, read-out: MIC (minimal inhibitory concentration) value) [µg/mL] | MIC (Vibrio anguillarum [3]; against Vibrio anguillarum, LB medium, 37° C., observed after 24 h) [µg/mL] | inhibitory activity against Vibrio anguillarum (in words) (Vibrio anguillarum [3]; compound 1)
O=C1N[C@H](Cc2ccccc2)C(=O)N2C[C@@H](O)C[C@H]12 (relative stereo) [compound 4, Cyclo(D)-trans-4-OH-Pro-(D)-Phe] | 13.45 (≈ 51.7 µM) | 13.45 (≈ 51.7 µM) | better lethal Artemia activity | weaker | 0.07 (≈ 0.269 µM) | better inhibitory activity; also recorded: great bactericidal activity |  |  |  |  | 
CCCCCC/C=C/CCC1C=CCC(=O)O1 (stereo not shown) [compound 1] |  |  | better lethal Artemia activity; also recorded: very good | better inhibitory activity |  |  | 3.25 (≈ 13.8 µM) | 1.58 (≈ 6.68 µM) | 1.58 (≈ 6.68 µM) | > 100 | weaker
CC[C@@H](C)[C@H]1NC(=O)[C@H]2CCCN2C1=O [compound 2, Cyclo(D)-Pro-(D)-Ile] | 55.67 (≈ 265 µM) | 55.67 (≈ 265 µM) | better lethal Artemia activity | weaker | 0.05 (≈ 0.238 µM) | better inhibitory activity; also recorded: great bactericidal activity |  |  |  |  | 
CC(C)C[C@H]1NC(=O)[C@H]2CCCN2C1=O [compound 3, Cyclo(D)-Pro-(D)-Leu] | 87.63 (≈ 417 µM) | 87.63 (≈ 417 µM) | better lethal Artemia activity | weaker | 0.04 (≈ 0.19 µM) | better inhibitory activity; also recorded: great bactericidal activity |  |  |  |  | 
